Reference: patent US20050101595A1, “N-containing cycloalkyl-substituted amino-thiazole derivatives and pharmaceutical compositions for inhibiting cell proliferation and methods for their use” (PFIZER INC., priority 2003, published 2005)
Read-outs that look alike come from different tables or passages of the source. One block for each compound: values may come before it.

Key:
[1] = target: human CDK4 and genetically truncated (1-264) cyclin D3 (Homo sapiens, UniProt P11802); assay: Inhibition of CDK4/Cyclin D Retinoblastoma Kinase Activity; assay type: biochemical
Procedure, shortened: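 The enzyme complex (5 nM), expressed in co-infected insect cells, was incubated with recombinant Rb fragment, 25 μM radiolabelled ATP and 2% DMSO at 30 °C. Reactions were stopped with EDTA after 20 minutes, or 60 minutes for tight-binding inhibitors. Apparent Ki values came from competitive inhibition fits.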

CDK2/Cyclin A = CDK2/Cyclin A (Homo sapiens, UniProt P24941); assay: Inhibition of CDK2/Cyclin A Retinoblastoma Kinase Activity; assay type: biochemical; settings: for CDK2 % Inhibition At 0.03 μM: Table 2
Procedure, shortened: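 CDK2 (10 or 19 nM), insect-cell expressed, gel-filtration purified with truncated cyclin A; Rb fragment substrate; 25 μM ATP; 10 mM HEPES pH 7.4, 10 mM MgCl2; 30° C, 60 or 75 min; EDTA stop; phosphocellulose/nitrocellulose capture, phosphorimager. % inhibition vs DMSO control, no-enzyme background subtracted.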

HCT-116 cell line = assay: Inhibition of cell growth, tetrazolium salt (MTT) assay; assay type: cell-based; settings: for IC50: Homo sapiens, HCT-116, 120 h, MTT, three to five days, read-out: HCT-116 IC50; for HCT-116 % Inhibition at 0.25 μM: 0.25 μM compound
Procedure, shortened: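 Cells in McCoy's 5A medium were left 4 h, then given graded compound concentrations in 0.5% (v/v) DMSO and incubated three to five days at 37° C (5% CO2). MTT was added to 0.2 mg/mL for 4 h more; DMSO-solubilized formazan was read at 540 nm against 0.5% DMSO-only controls.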

[2] = 0.1 μM compound, HCT-116, Table 4
[3] = 0.1 μM compound, HCT-116, Table 3
[4] = 0.03 μM compound, Table 4, 0.03 µM

human CDK4 and genetically truncated (1-264) cyclin D3, sequence (P11802 whole entry, the tested form may be a part): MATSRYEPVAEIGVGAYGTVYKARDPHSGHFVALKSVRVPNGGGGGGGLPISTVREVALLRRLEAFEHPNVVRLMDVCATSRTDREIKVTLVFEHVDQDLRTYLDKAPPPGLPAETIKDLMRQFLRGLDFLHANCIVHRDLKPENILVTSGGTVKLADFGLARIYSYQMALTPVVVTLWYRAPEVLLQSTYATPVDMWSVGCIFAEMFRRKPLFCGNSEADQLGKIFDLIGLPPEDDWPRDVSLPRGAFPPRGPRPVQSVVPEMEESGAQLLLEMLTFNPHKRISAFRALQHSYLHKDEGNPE
human CDK4 and genetically truncated (1-264) cyclin D3, sequence (P30281 1-264 partner): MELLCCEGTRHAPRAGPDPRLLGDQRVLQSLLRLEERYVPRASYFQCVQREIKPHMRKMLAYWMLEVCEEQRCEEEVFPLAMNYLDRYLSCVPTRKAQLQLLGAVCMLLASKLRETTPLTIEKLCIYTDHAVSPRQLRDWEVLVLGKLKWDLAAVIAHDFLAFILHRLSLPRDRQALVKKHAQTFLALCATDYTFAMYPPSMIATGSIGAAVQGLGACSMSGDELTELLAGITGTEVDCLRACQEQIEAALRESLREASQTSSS

SMILES: Nc1nc(NC2CCN(S(=O)(=O)c3ccc(-c4ccncc4)nc3)CC2)sc1C(=O)c1c(F)cccc1F [Example I7, 1-{4-Amino-2-[1-([2,4′]bipyridinyl-5-sulfonyl)-piperidinin-4-ylamino]-thiazol-5-yl}-1-(2,6-difluoro-phenyl)-methanone]
Ki ([1]; apparent Ki, CDK4/truncated cyclin D3, Rb fragment substrate, 25 μM ATP): 0.38 nM | Ki (CDK2/Cyclin A; apparent Ki, CDK2/proteolyzed cyclin A, Rb fragment substrate, 25 μM ATP): < 1 nM | IC50 (HCT-116 cell line; first HCT-116 column (c4)): 1300 nM | IC50 (HCT-116 cell line; second HCT-116 column (c5)): 5000 nM

SMILES: CCCc1ccccc1NC(=O)N1CCC(Nc2nc(N)c(C(=O)c3c(F)cccc3F)s2)CC1 [Example O81]
CDK4 % Inhibition at 0.03 μM ([1]; 0.03 μM compound, Table 2): −4% | CDK2 % Inhibition At 0.03 μM (CDK2/Cyclin A; 0.03 μM compound): 25% | HCT-116 % Inhibition at 0.25 μM (HCT-116 cell line; HCT-116, Table 2): 44%

SMILES: CCOC(=O)C(CCSC)NC(=O)N1CCC(Nc2nc(N)c(C(=O)c3c(F)cccc3F)s2)CC1 (stereo not shown) [Example O71]
CDK4 % Inhibition at 0.03 μM ([1]; 0.03 μM compound, Table 2): 7% | CDK2 % Inhibition At 0.03 μM (CDK2/Cyclin A; 0.03 μM compound): 30% | HCT-116 % Inhibition at 0.25 μM (HCT-116 cell line; HCT-116, Table 2): 51%

SMILES: Nc1nc(NC2CCN(C(=O)Nc3ccc4ccccc4c3)CC2)sc1C(=O)c1c(F)cccc1F [Example O54]
CDK4 % Inhibition at 0.03 μM ([1]; 0.03 μM compound, Table 2): 15% | CDK2 % Inhibition At 0.03 μM (CDK2/Cyclin A; 0.03 μM compound): 34% | HCT-116 % Inhibition at 0.25 μM (HCT-116 cell line; HCT-116, Table 2): 46%

SMILES: COc1cc(NC(=O)N2CCC(Nc3nc(N)c(C(=O)c4c(F)cccc4F)s3)CC2)cc(OC)c1OC [Example O44]
CDK4 % Inhibition at 0.03 μM ([1]; 0.03 μM compound, Table 2): 12% | CDK2 % Inhibition At 0.03 μM (CDK2/Cyclin A; 0.03 μM compound): 22% | HCT-116 % Inhibition at 0.25 μM (HCT-116 cell line; HCT-116, Table 2): 29%

The next lines start with results.

CDK4 % Inhibition at 0.03 μM ([1]; at 0.03 μM): 28% | CDK2 % Inhibition at 0.03 μM (CDK2/Cyclin A; at 0.03 μM): 17%
SMILES: Nc1nc(NC2CCN(C(=O)OC3CCCC3)CC2)sc1C(=O)c1c(F)cccc1F [Example R87]
HCT-116 % Inhibition at 0.1 μM (HCT-116 cell line; HCT-116 cells, at 0.1 μM): 0% | HCT-116 5 Inhibition at 0.25 μM (HCT-116 cell line; HCT-116 cells): 36

CDK4 % Inhibition at 0.03 μM ([1]; 0.03 μM compound, Table 4): 36% | CDK2 % Inhibition at 0.03 μM (CDK2/Cyclin A; 0.03 μM compound, Table 4): 24%
SMILES: Nc1nc(NC2CCN(C(=O)COc3ccccc3)CC2)sc1C(=O)c1c(F)cccc1F [Example Q41]
HCT-116 % Inhibition at 0.1 μM (HCT-116 cell line; [2]): 3% | HCT-116 % Inhibition at 0.25 μM (HCT-116 cell line; HCT-116, Table 4): 15%

CDK4 % Inhibition at 0.03 μM ([1]; 0.03 μM compound, Table 3): 33% | CDK2 % Inhibition at 0.03 μM (CDK2/Cyclin A; 0.03 μM compound, Table 3): 9%
SMILES: Nc1nc(NC2CCN(S(=O)(=O)CCc3cccc4ccccc34)CC2)sc1C(=O)c1c(F)cccc1F [Example P76]
HCT-116 % Inhibition at 0.1 μM (HCT-116 cell line; [3]): 23%

CDK4 % Inhibition at 0.03 μM ([1]; 0.03 μM compound, Table 3): 51% | CDK2 % Inhibition at 0.03 μM (CDK2/Cyclin A; 0.03 μM compound, Table 3): 45%
SMILES: Nc1nc(NC2CCN(S(=O)(=O)c3cccc4ccccc34)CC2)sc1C(=O)c1c(F)cccc1F [Example P1]
HCT-116 % Inhibition at 0.1 μM (HCT-116 cell line; [3]): 9% | HCT-116 % Inhibition at 0.25 μM (HCT-116 cell line; HCT-116, Table 3): 32%

CDK4 % Inhibition at 0.03 μM [1, 4]: 48% | CDK2 % Inhibition at 0.03 μM (CDK2/Cyclin A; [4]): 45%
SMILES: Nc1nc(NC2CCN(C(=O)c3cccs3)CC2)sc1C(=O)c1c(F)cccc1F [Example Q64]
HCT-116 % Inhibition at 0.1 μM (HCT-116 cell line; 0.1 μM compound, HCT-116, Table 4, 0.1 µM): 7% | HCT-116 % Inhibition at 0.25 μM (HCT-116 cell line; HCT-116, Table 4, 0.25 µM): 25%

CDK4 % Inhibition at 0.03 μM ([1]; at 0.03 μM): 32% | CDK2 % Inhibition at 0.03 μM (CDK2/Cyclin A; at 0.03 μM): 24%
SMILES: Nc1nc(NC2CCN(C(=O)c3c(F)cc(F)cc3F)CC2)sc1C(=O)c1c(F)cccc1F [Example R53]
HCT-116 % Inhibition at 0.1 μM (HCT-116 cell line; HCT-116 cells, at 0.1 μM): 0% | HCT-116 5 Inhibition at 0.25 μM (HCT-116 cell line; HCT-116 cells): 30

CDK4 % Inhibition at 0.03 μM ([1]; at 0.03 μM): 10% | CDK2 % Inhibition at 0.03 μM (CDK2/Cyclin A; at 0.03 μM): 9%
SMILES: Cc1cc(C(=O)N2CCC(Nc3nc(N)c(C(=O)c4c(F)cccc4F)s3)CC2)no1 [Example R64]
HCT-116 % Inhibition at 0.1 μM (HCT-116 cell line; HCT-116 cells, at 0.1 μM): 0% | HCT-116 5 Inhibition at 0.25 μM (HCT-116 cell line; HCT-116 cells): 42

CDK4 % Inhibition at 0.03 μM ([1]; at 0.03 μM): 37% | CDK2 % Inhibition at 0.03 μM (CDK2/Cyclin A; at 0.03 μM): 7%
SMILES: Nc1nc(NC2CCN(C(=O)N3CCOCC3)CC2)sc1C(=O)c1c(F)cccc1F [Example R80]
HCT-116 % Inhibition at 0.1 μM (HCT-116 cell line; HCT-116 cells, at 0.1 μM): 0% | HCT-116 5 Inhibition at 0.25 μM (HCT-116 cell line; HCT-116 cells): 47

CDK4 % Inhibition at 0.03 μM ([1]; at 0.03 μM): 42% | CDK2 % Inhibition at 0.03 μM (CDK2/Cyclin A; at 0.03 μM): −6%
SMILES: CCOC(=O)CCCC(=O)N1CCC(Nc2nc(N)c(C(=O)c3c(F)cccc3F)s2)CC1 [Example R3]
HCT-116 % Inhibition at 0.1 μM (HCT-116 cell line; HCT-116 cells, at 0.1 μM): 8% | HCT-116 5 Inhibition at 0.25 μM (HCT-116 cell line; HCT-116 cells): 37

CDK4 % Inhibition at 0.03 μM ([1]; 0.03 μM compound, Table 4): 73% | CDK2 % Inhibition at 0.03 μM (CDK2/Cyclin A; 0.03 μM compound, Table 4): 24%
SMILES: COc1cc(C(=O)N2CCC(Nc3nc(N)c(C(=O)c4c(F)cccc4F)s3)CC2)cc(OC)c1OC [Example Q22]
HCT-116 % Inhibition at 0.1 μM (HCT-116 cell line; [2]): 16% | HCT-116 % Inhibition at 0.25 μM (HCT-116 cell line; HCT-116, Table 4): 48%
